The values below come from patent US6017923A, “Carbo-acyclic nucleoside derivatives as antiviral and antineoplastic agents” (Hoechst Marion Roussel, Inc., priority 1996, dated 2000).

In brackets after ≈: the same amount, converted by molar mass.

The experiment deals with HeLa cells. Briefly: Inhibitory effects of compounds on HeLa cell proliferation in vitro (96 h). It counts as cell-based. Conditions: Homo sapiens, exponentially growing, concentration at 50% inhibition of cell growth. The procedure: INHIBITORY EFFECTS OF COMPOUNDS ON HeLa CELL PROLIFERATION The inhibitory effect of various compounds of formula (1) on HeLa cell proliferation invitro was determined according to the method described by Sunkara et al. [J. Natl. Cancer Instit. 70, 505-509 (1983)]. Exponentially growing HeLa cells were incubated in the presence or absence of various concentrations of test compounds for 96 hours. IC50 values were calculated which represent the test compound concentration at 50% inhibition of cell growth.
For `C=C(CO)CCn1cnc2c(N)ncnc21` [Compound C, 4-(Adenin-9-yl)-2-hydroxymethylbut-1-ene], the IC50 was found to be 0.6 µg/mL (≈ 2.74 µM). As for `Nc1ncnc2c1ncn2CC/C(=C/F)CO` [Compound B, (Z)-4-(Adenin-9-yl)-2-hydroxymethyl-1-fluorobut-1-ene], the figure is 1 µg/mL (≈ 4.22 µM). Compound `Nc1ncnc2c1ncn2CC/C(=C\F)CO` [Compound A, (E)-4-(Adenin-9-yl)-2-hydroxymethyl-1-fluorobut-1-ene] had an IC50 of 0.25 µg/mL (≈ 1.05 µM).
